# Test results as given in patent US20180036289A1 (Gilead Sciences, Inc., priority 2016, published 2018).
# Experiments:
# 769-P = assay: Cell proliferation assay (ATPlite), drug with vs without cobicistat; assay type: cell-based; conditions: 769-P cell line; 120 hours incubation
# Experimental: (§1) All cell lines were obtained from the American Type Culture Collection (ATCC) Manassas, Va. (US). Master and working cell banks (MCB and WCB) were prepared by subculturing in ATCC-recommended media and freezing protocols (www.atcc.org). Cell line stocks for the assays were prepared from the WCB. The MCB, WCBs and assay stocks were prepared within respectively 3, 6 and 9 passages of the ATCC vial.
# (§2) Solid powders of reference compounds were weighed on a calibrated balance and dissolved in 100% DMSO. DMSO samples were stored at room temperature. At the day of the experiment, the compound stock was diluted in 3.16 fold steps in 100% DMSO to obtain a 9-point dilution series. This was further diluted 31.6 times in 20 mM sterile Hepes buffer pH 7.4. A volume of 5 μl was transferred to the cells to generate a test concentration range from 3.16×10^−5M to 3.16×10^−9 M in duplicate. The final DMSO concentration during incubation was […] in all wells.
# (§3) An assay stock was thawed and diluted in its ATCC recommended medium and dispensed in a 384-well plate, depending on the cell line used, at a concentration of 200-3200 cells per well in 45 μl medium. For each used cell line the optimal cell density is used. The margins of the plate were filled with phosphate-buffered saline. Plated cells were incubated in a humidified atmosphere of 5% CO2 at 37° C. After 24 hours, 5 μl of compound dilution was added and plates were further incubated for another 120 hours. After 120 hours, 25 μl of ATPlite 1Step™ (PerkinElmer) solution was added to each well, and subsequently shaken for 2 minutes. After 10 minutes of incubation in the dark, the luminescence was recorded on an Envision multimode reader (PerkinElmer).
# (§4) IC50s were calculated by non-linear regression using IDBS XLfit 5. The percentage growth after 120 h (%-growth) was calculated as follows: 100%×(luminescencet=120h/luminescenceuntreated,t=120h). This was fitted to the ^10log compound concentration (conc) by a 4-parameter logistics curve: %−growth=bottom+(top−bottom)/(1+10^(log IC50-conc)*hill)), where hill is the Hill-coefficient, and bottom and top the asymptotic minimum and maximum cell growth that the compound allows in that assay.
# A-549 = assay: as above; assay type: cell-based; conditions: A-549 cell line; 120 hours incubation
# Experimental: as §1, §2, §3, §4
# A-704 = assay: as above; assay type: cell-based; conditions: A-704 cell line; 120 hours incubation
# Experimental: as §1, §2, §3, §4
# AN3 CA = assay: as above; assay type: cell-based; conditions: AN3 CA cell line; 120 hours incubation
# Experimental: as §1, §2, §3, §4
# AU-565 = assay: as above; assay type: cell-based; conditions: AU-565 cell line; 120 hours incubation
# Experimental: as §1, §2, §3, §4
# AsPC-1 = assay: as above; assay type: cell-based; conditions: AsPC-1 cell line; 120 hours incubation
# Experimental: as §1, §2, §3, §4
# BT-20 = assay: as above; assay type: cell-based; conditions: BT-20 cell line; 120 hours incubation
# Experimental: as §1, §2, §3, §4
# BT-549 = assay: as above; assay type: cell-based; conditions: BT-549 cell line; 120 hours incubation
# Experimental: as §1, §2, §3, §4
# BxPC-3 = assay: as above; assay type: cell-based; conditions: BxPC-3 cell line; 120 hours incubation
# Experimental: as §1, §2, §3, §4
# CAL 27 = assay: as above; assay type: cell-based; conditions: CAL 27 cell line; 120 hours incubation
# Experimental: as §1, §2, §3, §4
# CCRF-CEM = assay: as above; assay type: cell-based; conditions: CCRF-CEM cell line; 120 hours incubation
# Experimental: as §1, §2, §3, §4
# DLD-1 = assay: as above; assay type: cell-based; conditions: DLD-1 cell line; 120 hours incubation
# Experimental: as §1, §2, §3, §4
# DU 145 = assay: as above; assay type: cell-based; conditions: DU 145 cell line; 120 hours incubation
# Experimental: as §1, §2, §3, §4
# HCT 116 = assay: as above; assay type: cell-based; conditions: HCT 116 cell line; 120 hours incubation
# Experimental: as §1, §2, §3, §4
# J82 = assay: as above; assay type: cell-based; conditions: J82 cell line; 120 hours incubation
# Experimental: as §1, §2, §3, §4
# K-562 = assay: as above; assay type: cell-based; conditions: K-562 cell line; 120 hours incubation
# Experimental: as §1, §2, §3, §4
# KU812 = assay: as above; assay type: cell-based; conditions: KU812 cell line; 120 hours incubation
# Experimental: as §1, §2, §3, §4
# LoVo = assay: as above; assay type: cell-based; conditions: LoVo cell line; 120 hours incubation
# Experimental: as §1, §2, §3, §4
# MCF7 = assay: as above; assay type: cell-based; conditions: MCF7 cell line; 120 hours incubation
# Experimental: as §1, §2, §3, §4
# MOLT-4 = assay: as above; assay type: cell-based; conditions: MOLT-4 cell line; 120 hours incubation
# Experimental: as §1, §2, §3, §4
# NCI-H82 = assay: as above; assay type: cell-based; conditions: NCI-H82 cell line; 120 hours incubation
# Experimental: as §1, §2, §3, §4
# RPMI-7951 = assay: as above; assay type: cell-based; conditions: RPMI-7951 cell line; 120 hours incubation
# Experimental: as §1, §2, §3, §4
# RT4 = assay: as above; assay type: cell-based; conditions: RT4 cell line; 120 hours incubation
# Experimental: as §1, §2, §3, §4
# SJCRH30 = assay: as above; assay type: cell-based; conditions: SJCRH30 cell line; 120 hours incubation
# Experimental: as §1, §2, §3, §4
# SK-N-AS = assay: as above; assay type: cell-based; conditions: SK-N-AS cell line; 120 hours incubation
# Experimental: as §1, §2, §3, §4
# SR = assay: as above; assay type: cell-based; conditions: SR cell line; 120 hours incubation
# Experimental: as §1, §2, §3, §4
# SW620 = assay: as above; assay type: cell-based; conditions: SW620 cell line; 120 hours incubation
# Experimental: as §1, §2, §3, §4
# SW948 = assay: as above; assay type: cell-based; conditions: SW948 cell line; 120 hours incubation
# Experimental: as §1, §2, §3, §4
# T24 = assay: as above; assay type: cell-based; conditions: T24 cell line; 120 hours incubation
# Experimental: as §1, §2, §3, §4
# TT = TT cell line; 120 hours incubation
# Experimental: as §1, §2, §3, §4
SMILES,Fold change in IC50 (IC50 [Drug + Cobicistat]/IC50 [Drug]) (769-P),Fold change in IC50 (IC50 [Drug + Cobicistat]/IC50 [Drug]) (A-549),Fold change in IC50 (IC50 [Drug + Cobicistat]/IC50 [Drug]) (A-704),Fold change in IC50 (IC50 [Drug + Cobicistat]/IC50 [Drug]) (AN3 CA),Fold change in IC50 (IC50 [Drug + Cobicistat]/IC50 [Drug]) (AU-565),Fold change in IC50 (IC50 [Drug + Cobicistat]/IC50 [Drug]) (AsPC-1),Fold change in IC50 (IC50 [Drug + Cobicistat]/IC50 [Drug]) (BT-20),Fold change in IC50 (IC50 [Drug + Cobicistat]/IC50 [Drug]) (BT-549),Fold change in IC50 (IC50 [Drug + Cobicistat]/IC50 [Drug]) (BxPC-3),Fold change in IC50 (IC50 [Drug + Cobicistat]/IC50 [Drug]) (CAL 27),Fold change in IC50 (IC50 [Drug + Cobicistat]/IC50 [Drug]) (CCRF-CEM),Fold change in IC50 (IC50 [Drug + Cobicistat]/IC50 [Drug]) (DLD-1),Fold change in IC50 (IC50 [Drug + Cobicistat]/IC50 [Drug]) (DU 145),Fold change in IC50 (IC50 [Drug + Cobicistat]/IC50 [Drug]) (HCT 116),Fold change in IC50 (IC50 [Drug + Cobicistat]/IC50 [Drug]) (J82),Fold change in IC50 (IC50 [Drug + Cobicistat]/IC50 [Drug]) (K-562),Fold change in IC50 (IC50 [Drug + Cobicistat]/IC50 [Drug]) (KU812),Fold change in IC50 (IC50 [Drug + Cobicistat]/IC50 [Drug]) (LoVo),Fold change in IC50 (IC50 [Drug + Cobicistat]/IC50 [Drug]) (MCF7),Fold change in IC50 (IC50 [Drug + Cobicistat]/IC50 [Drug]) (MOLT-4),further results
CC(=O)O[C@H]1C(=O)[C@@]2(C)[C@H]([C@H](OC(=O)c3ccccc3)[C@]3(O)C[C@H](OC(=O)[C@H](O)[C@@H](NC(=O)c4ccccc4)c4ccccc4)C(C)=C1C3(C)C)[C@]1(OC(C)=O)CO[C@@H]1C[C@@H]2O [paclitaxel],2.9 fold,1.0 fold,1.5 fold,2.9 fold,2.7 fold,2.2 fold,1.5 fold,1.2 fold,3.2 fold,2.0 fold,2.6 fold,1.9 fold,4.8 fold,1.0 fold,2.9 fold,2.4 fold,4.6 fold,1.3 fold,3.3 fold,2.1 fold,Fold change in IC50 (IC50 [Drug + Cobicistat]/IC50 [Drug]) (NCI-H82): 2.4 fold; Fold change in IC50 (IC50 [Drug + Cobicistat]/IC50 [Drug]) (RPMI-7951): 2.9 fold; Fold change in IC50 (IC50 [Drug + Cobicistat]/IC50 [Drug]) (RT4): 3.7 fold; Fold change in IC50 (IC50 [Drug + Cobicistat]/IC50 [Drug]) (SJCRH30): 1.6 fold; Fold change in IC50 (IC50 [Drug + Cobicistat]/IC50 [Drug]) (SK-N-AS): 2.3 fold; Fold change in IC50 (IC50 [Drug + Cobicistat]/IC50 [Drug]) (SR): 1.8 fold; Fold change in IC50 (IC50 [Drug + Cobicistat]/IC50 [Drug]) (SW620): 1.8 fold; Fold change in IC50 (IC50 [Drug + Cobicistat]/IC50 [Drug]) (SW948): 2.6 fold; Fold change in IC50 (IC50 [Drug + Cobicistat]/IC50 [Drug]) (T24): 4.4 fold; Fold change in IC50 (IC50 [Drug + Cobicistat]/IC50 [Drug]) (TT): 3.0 fold
CC[C@]1(O)C[C@@H]2CN(CCc3c([nH]c4ccccc34)[C@@](C(=O)OC)(c3cc4c(cc3OC)N(C)[C@H]3[C@@](O)(C(=O)OC)[C@H](OC(C)=O)[C@]5(CC)C=CCN6CC[C@]43[C@@H]65)C2)C1 [vinblastine],2.5 fold,2.3 fold,3.8 fold,3.9 fold,3.0 fold,5.6 fold,2.7 fold,3.3 fold,2.4 fold,2.8 fold,3.3 fold,2.2 fold,5.4 fold,2.0 fold,4.2 fold,2.6 fold,4.4 fold,1.9 fold,5.3 fold,2.8 fold,Fold change in IC50 (IC50 [Drug + Cobicistat]/IC50 [Drug]) (NCI-H82): 3.5 fold; Fold change in IC50 (IC50 [Drug + Cobicistat]/IC50 [Drug]) (RPMI-7951): 3.2 fold; Fold change in IC50 (IC50 [Drug + Cobicistat]/IC50 [Drug]) (RT4): 4.9 fold; Fold change in IC50 (IC50 [Drug + Cobicistat]/IC50 [Drug]) (SJCRH30): 3.8 fold; Fold change in IC50 (IC50 [Drug + Cobicistat]/IC50 [Drug]) (SK-N-AS): 3.7 fold; Fold change in IC50 (IC50 [Drug + Cobicistat]/IC50 [Drug]) (SR): 4.0 fold; Fold change in IC50 (IC50 [Drug + Cobicistat]/IC50 [Drug]) (SW620): 2.7 fold; Fold change in IC50 (IC50 [Drug + Cobicistat]/IC50 [Drug]) (SW948): 4.2 fold; Fold change in IC50 (IC50 [Drug + Cobicistat]/IC50 [Drug]) (T24): 5.2 fold; Fold change in IC50 (IC50 [Drug + Cobicistat]/IC50 [Drug]) (TT): 8.7 fold
CC[C@]1(O)C[C@H]2CN(CCc3c([nH]c4ccccc34)[C@@](C(=O)OC)(c3cc4c(cc3OC)N(C=O)[C@H]3[C@@](O)(C(=O)OC)[C@H](OC(C)=O)[C@]5(CC)C=CCN6CC[C@]43[C@@H]65)C2)C1 [vincristine],3.5 fold,1.9 fold,2.0 fold,4.7 fold,3.0 fold,3.1 fold,3.2 fold,2.9 fold,4.1 fold,2.6 fold,3.6 fold,2.0 fold,3.8 fold,1.4 fold,3.6 fold,3.5 fold,3.7 fold,1.6 fold,4.8 fold,2.1 fold,Fold change in IC50 (IC50 [Drug + Cobicistat]/IC50 [Drug]) (NCI-H82): 3.1 fold; Fold change in IC50 (IC50 [Drug + Cobicistat]/IC50 [Drug]) (RPMI-7951): 4.6 fold; Fold change in IC50 (IC50 [Drug + Cobicistat]/IC50 [Drug]) (RT4): 4.0 fold; Fold change in IC50 (IC50 [Drug + Cobicistat]/IC50 [Drug]) (SJCRH30): 3.5 fold; Fold change in IC50 (IC50 [Drug + Cobicistat]/IC50 [Drug]) (SK-N-AS): 4.7 fold; Fold change in IC50 (IC50 [Drug + Cobicistat]/IC50 [Drug]) (SR): 3.6 fold; Fold change in IC50 (IC50 [Drug + Cobicistat]/IC50 [Drug]) (SW620): 3.0 fold; Fold change in IC50 (IC50 [Drug + Cobicistat]/IC50 [Drug]) (SW948): 3.5 fold; Fold change in IC50 (IC50 [Drug + Cobicistat]/IC50 [Drug]) (T24): 4.4 fold; Fold change in IC50 (IC50 [Drug + Cobicistat]/IC50 [Drug]) (TT): 4.8 fold
